Series [1] is described as follows: Volume of distribution at steady state in Sprague-Dawley rat at 2 mg/kg, iv by LC-MS/MS analysis. It is filed as ADME, organism-based. The settings on record: in vivo.
A short description of series [2]: MRT (0 to t) in Sprague-Dawley rat at 15 mg/kg, po by LC-MS/MS analysis. It is filed as ADME, organism-based. Conditions: in vivo.
The test system of series [3] is HCT-116. The experiment in a line: cells. The settings on record: Homo sapiens, HCT-116, 72 h.
Description: Antiproliferative activity against human HCT116 cells after 72 hrs by MTT assay
The nature of series [4]: Oral bioavailability in Sprague-Dawley rat at 15 mg/kg by LC-MS/MS analysis. It is filed as ADME, organism-based. The settings on record: in vivo.
Series [5] is described as follows: AUC (0 to 24 hrs) in Sprague-Dawley rat at 15 mg/kg, po by LC-MS/MS analysis. It is filed as ADME, organism-based. More on the design: dose 15 mg/kg, time < 24 hr, route oral. The settings on record: in vivo.
In series [6] the test system is HCT-15. The experiment in a line: animal or person. The settings on record: Mus musculus, HCT-15, po, read-out: TGI.
Series [7] can be described thus: Toxicity in nude mouse xenografted with human SW620 cells assessed as body weight loss at 10 to 15 mg/kg, qd administered via gavage for 3 weeks. It is filed as organism-based. Conditions: in vivo, po, 504 h. A general note: In xenograft studies the graft and the host belong to different species.
A short description of series [8]: Cmax in Sprague-Dawley rat at 2 mg/kg, iv by LC-MS/MS analysis. It is filed as ADME, organism-based. More on the design: dose 2 mg/kg, route intravenous. The settings on record: in vivo.
The subject of series [9] is HCT-15. The experiment in a line: cells. The settings on record: Homo sapiens, HCT-15, 72 h.
Description: Antiproliferative activity against human HCT15 cells after 72 hrs by MTT assay
The subject of series [10] is HCT-116. The experiment in a line: animal or person. Conditions: Mus musculus, HCT-116, po, read-out: TGI.
In series [11] the test system is HCT-116. The experiment in a line: animal or person. The settings on record: Mus musculus, HCT-116, po, read-out: TGI. This is another data set of the same source.
A short description of series [12]: Toxicity in nude mouse xenografted with human HCT116 cells assessed as body weight loss at 10 to 15 mg/kg, qd administered via gavage for 3 weeks. It is filed as organism-based. The settings on record: in vivo, po, 504 h.
Series [13] can be described thus: Toxicity in nude mouse xenografted with human HCT15 cells assessed as body weight loss at 10 to 15 mg/kg, qd administered via gavage for 3 weeks. It is filed as organism-based. The settings on record: in vivo, po, 504 h.
Series [14] in a line: Cmax in Sprague-Dawley rat at 15 mg/kg, po by LC-MS/MS analysis. It is filed as ADME, organism-based. More on the design: dose 15 mg/kg, route oral. The settings on record: in vivo.
For series [15], the system named is SW-620. The experiment in a line: animal or person. Conditions: Mus musculus, SW-620, po, read-out: TGI.
Series [16] deals with A549. The experiment in a line: cells. Conditions: Homo sapiens, A549, 72 h.
Description: Antiproliferative activity against human A549 cells after 72 hrs by MTT assay
The test system of series [17] is SW-620. The experiment in a line: animal or person. The settings on record: Mus musculus, SW-620, po, read-out: TGI. The source holds these as a separate data set.
Series [18] in a line: MRT (0 to t) in Sprague-Dawley rat at 2 mg/kg, iv by LC-MS/MS analysis. It is filed as ADME, organism-based. Conditions: in vivo.
Series [19] is described as follows: Tmax in Sprague-Dawley rat at 2 mg/kg, iv by LC-MS/MS analysis. It is filed as ADME, organism-based. Conditions: in vivo.
Series [20] can be described thus: Tmax in Sprague-Dawley rat at 15 mg/kg, po by LC-MS/MS analysis. It is filed as ADME, organism-based. The settings on record: in vivo.
A short description of series [21]: Clearance in Sprague-Dawley rat at 2 mg/kg, iv by LC-MS/MS analysis. It is filed as ADME, organism-based. The settings on record: in vivo.
The test system of series [22] is HCT-15. The experiment in a line: animal or person. The settings on record: Mus musculus, HCT-15, po, read-out: TGI. The source holds these as a separate data set.
A short description of series [23]: AUC (0 to t) in Sprague-Dawley rat at 2 mg/kg, iv by LC-MS/MS analysis. It is filed as ADME, organism-based. Conditions: in vivo.
The nature of series [24]: Half life in Sprague-Dawley rat at 2 mg/kg, iv by LC-MS/MS analysis. It is filed as ADME, organism-based. The settings on record: in vivo.

A word on the Vdss: it is the apparent volume that relates the amount in the body to the concentration in plasma or blood. High values mean extensive tissue distribution, low ones confinement near the circulation. Usually MRT last stands for the average time that molecules of a dose stay in the body. A word on the IC50: it is the concentration at which inhibition is half-maximal. A low value points to greater potency. Usually bioavailability stands for dose-corrected exposure relative to a reference, in per cent. High values mean much systemic uptake, low ones little systemic uptake. One may read the AUC(0-t) as exposure summed from dosing to a finite time, without extrapolation to infinity. As a reminder, the Cmax is the maximum level reached in the sampled fluid or tissue. One may read the Tmax as the time at which the peak concentration occurs. In general, half-life refers to the time needed for the level to fall by half in the phase considered.

`Cc1cc(O)c(-c2ccc([C@@H](C)CN)cc2)c2c1[nH]c(=O)c1c(O)cccc12` returned a Vdss in series [1] of 20.25 L/kg. In addition, the MRT last in [2] was found to be 10.5 h. The IC50 amounted to 7.87 nM in series [3], 31.4 nM in series [9] and 5.41 nM in [16]. In series [4], this compound yielded a bioavailability of 100%. In [5], this compound gave an exposure AUC(0-t) at 24 h of 4.23 µg·h/mL. Also, the inhibition in vivo at 15 mg/kg in [6] was 78.8%; in series [10], 75.8%; in [17], 79.7%. In addition, the Activity entry in [7], in series [12] and in series [13] was “Non-Toxic” in each case. Further, the Cmax amounted to 0.188 µg/mL in [8] and 0.251 µg/mL in series [14]. The inhibition in vivo at 10 mg/kg in [11] came out at 53.7%; in series [15] it was 72.1%; in series [22] it was 42.1%. Moreover, the “MRT(t)” value in series [18] was 3.24 h. The Tmax in series [19] came to 4.8 min; in series [20] it was 6.67 h. In series [21], this compound returned a CL of 2.03719 L/h/kg. This compound also registered an area under the curve AUC(0-t) in series [23] of 0.564 µg·h/mL. Moreover, the half-life in [24] is 7.02 h.

Values taken from ChEMBL document CHEMBL4382235, “Design, synthesis and biological evaluation of novel 1-phenyl phenanthridin-6(5H)-one derivatives as anti-tumor agents targeting TOPK” (Eur J Med Chem, 2019).
